Here are results for six compounds from US10807960B2, “Compounds, compositions, and methods for controlling biofilms” (KATHOLIEKE UNIVERSITEIT LEUVEN, priority 2015, dated 2020).

Data set [1] deals with E. coli TG1 + P. aeruginosa PA14. In words: mixed E. coli/P. aeruginosa biofilm assay, crystal violet. In kind it is cell-based. To be noted: for IC50: 37° C. (Table 3). As to the method:
Overnight cultures of E. coli TG1 and P. aeruginosa PA14, were diluted 1/100 in the same vial of TSB 1/20 to form a mixed culture suspension.

Data set [2] has as its system C. albicans SC5314 + S. epidermidis. The data set can be described thus: mixed C. albicans/S. epidermidis biofilm assay, selective plating. In kind it is cell-based, Candida albicans; Staphylococcus epidermidis. To be noted: for activity at 25 µM: 25 μM (Table 5); for activity at 100 µM: 100 μM (Table 5). As to the method: The concentrations 25 μM (0.0625% DMSO or ethanol) and 100 μM (0.25% DMSO or ethanol) were tested. After 24 h of incubation at 37° C., biofilms were washed with PBS and fresh medium with or without compounds was added. After further incubation for 48 h at 37° C., the biofilms were washed with PBS after which the cells were re-suspended in 100 μl of PBS by scraping off, sonication (1 min, 45 kHz, USC300-T; VWR, Radnor, Pa., USA) and vigorously pipetting up-and-down. Finally, the biofilm cells were diluted in PBS and plated on YPD agar plates containing 100 mg/L ampicillin and TSA plates containing 25 mg/L amphotericin B, to determine the number of fungal and bacterial CFUs after 2 days of incubation at 37° C., respectively. The percentage of C. albicans SC5314 and S. epidermidis cells was determined relative to the DMSO or ethanol control treatment.

The subject of data set [3] is osteoblasts (OB). The data set can be described thus: mammalian-cell viability assay, trypan blue staining. In kind it is cell-based. To be noted: 12.5 μM, 6 days exposure. The procedure:
(§1) Cell viability of two human primary cell types, namely, osteoblasts (OB) and bone-marrow derived mesenchymal stem cells (MSC) was tested according to the ISO 10993-5 standard, as previously described. Briefly, cells were seeded in 96-well tissue culture test plates (TPP, Switzerland) at 5×10^3 cells/cm^2 in Advanced DMEM cell culture media supplemented with 10% serum, 1× GlutaMAX, 0.05 mg/mL Gentamycin, and were allowed to attach overnight. The next day, the cells were exposed to (i) cell culture medium and medium with the corresponding control (0.5% ethanol or DMSO) (negative controls), (ii) medium with 0.05% phenol (cytotoxic control), and (iii) medium with compounds (12.5 μM) and incubated for 2 h, 48 h and 6 days (8 repeats for each condition). At each time-point the numbers of viable and dead cells were determined directly by trypan blue staining, and indirectly by measuring the metabolic activity with MTT (3-(4,5-dimethylthiazol-2-yl)-2,5-diphenyltetrazolium bromide) staining.
(§2) The medium was removed from the wells, and 1/3 trypan blue in Dulbecco's modified Eagle's medium (DMEM) was added to the cells, incubated for 3 min, after which trypan blue was removed and DMEM medium was added to the wells. In each of four wells, two microscopy fields were counted for viable (transparent) and dead (blue) cells.

In data set [4] the test system is bone-marrow derived mesenchymal stem cells (MSC). The data set is described as above. Type of data set: cell-based. To be noted: 12.5 μM, 6 days exposure. As to the method: as §1, §2
For data set [5], the system named is E. coli TG1. In words: static peg (Calgary Biofilm Device) anti-biofilm assay, crystal violet and OD600. Conditions: for IC50: 37° C.
Data set [6] deals with osteoblasts (OB). In words: osteogenic differentiation, calcium and DNA assay. Conditions: 12.5 μM, calcium content normalized by DNA, versus solvent control. Type of data set: cell-based, human. As to the method: (§3) The effect on osteogenic differentiation potential was assessed as previously described. Only the substances that allowed survival of the cells for more than 3 weeks, which is the time needed for mature osteogenic differentiation, were tested. Briefly, osteoblasts and bone-marrow derived mesenchymal stem cells were cultured in a positive solvent control (osteogenic medium with 0.5% DMSO or ethanol background), a negative control (medium without osteogenic supplements) and treated samples (osteogenic medium, 0.5% DMSO or ethanol background and 12.5 μM of test compound) with four repeats per condition. Mesenchymal stem cells and osteoblast cell cultures were harvested after 3 or 5 weeks, respectively, for the calcium and DNA assay.
(§4) Calcium deposition of osteoblasts and mesenchymal stem cells was measured with the Calcium CPC LiquiColor test (Stanbio Laboratory, Boerne, Tex.) as previously described. Briefly, cell cultures were extracted with 5% trichloroacetic acid (500 μl per sample), O-cresolphtalein complex was added, and the calcium content was determined spectrophotometrically at 550 nm. DNA content was determined as previously described. DNA values were used to normalize the calcium content. Four wells per condition were examined, and two samples from each well were taken for each assay.

Data set [7] relates to bone-marrow derived mesenchymal stem cells (MSC). In words: osteogenic differentiation, calcium and DNA assay. In kind it is cell-based, human. Conditions: 12.5 μM, calcium content normalized by DNA, versus solvent control. The procedure: as §3, §4
Data set [8] concerns P. aeruginosa PA14. The data set can be described thus: static peg (Calgary Biofilm Device) anti-biofilm assay, crystal violet and OD600.
The subject of data set [9] is S. liquefaciens MG44. The description is as above. Type of data set: cell-based, Serratia liquefaciens. Conditions: 25° C.
Data set [10] relates to C. albicans SC5314. In words: inhibition of C. albicans biofilms, cell titer blue (CTB) quantification. In kind it is cell-based, Candida albicans. Conditions: for IC50: biofilm formation, 37° C., read-out: BIC50. As to the method:
The potential of the compounds to prevent C. albicans SC5314 biofilm formation was assessed using the cell titer blue (CTB) quantification method (26). For the CTB method, an overnight culture of C. albicans SC5314 was washed with PBS and a cell suspension of 10^6 cells/ml (OD600=0.1) was prepared in RPMI 1640 medium (pH 7.0). […] After 16 h of static incubation at 37° C., biofilms were washed and quantified with CTB as described previously.
A general note: The colour change of resazurin is a common sign of viable cells or microbes.

Data set [11] has as its system S. aureus ATCC6538 + S. epidermidis. In words: mixed S. aureus/S. epidermidis biofilm assay, crystal violet. Type of data set: cell-based. To be noted: 37° C. (Table 3). As to the method:
Overnight cultures of S. aureus ATCC6538 and S. epidermidis were grown in LB medium and were diluted 1/200 in the same vial of TSB to form a mixed culture suspension.

For data set [12], the system named is S. Typhimurium ATCC14028. In words: static peg (Calgary Biofilm Device) anti-biofilm assay, crystal violet and OD600.
Data set [13] concerns S. aureus ATCC6538. The description is as above. Conditions: 37° C.
For data set [14], the system named is S. epidermidis. Described as above. To be noted: for IC50: 37° C.
Data set [15] relates to S. aureus SH1000. Described as above. Conditions: for IC50: 37° C.
Data set [16] has as its system P. gingivalis ATCC33277. Described as above.
In data set [17] the test system is B. cepacia LMG1222T. The data set is described as above. Conditions: for IC50: 25° C.
[18] abbreviates: C. albicans in mixed biofilm with S. epidermidis, read-out: CFUs % survival C.a.
[19] abbreviates: S. epidermidis in mixed biofilm with C. albicans, read-out: CFUs % survival Se.
[20] abbreviates: S. epidermidis in mixed biofilm with C. albicans, read-out: CFUs % survival S.c.
Where [21] appears, read: read-out: BIC50, biofilm formation, 25° C.
The mark [22] stands for this setting: read-out: BIC50, biofilm formation, 37° C.
Where [23] appears, read: mixed biofilm formation, read-out: BIC50.
The mark [24] stands for this setting: planktonic growth of mixed culture, read-out: IC50.
Where [25] appears, read: biofilm formation, read-out: BIC50.
Setting [26] is: planktonic growth, read-out: IC50.
Where [27] appears, read: read-out: BIC50, biofilm formation.

SMILES strings stand for the structures. Like-named read-outs stand apart in the source and are kept apart here.

Regarding `CCCCCCCCn1c(-c2ccccc2)cnc1NC1CCCC1` [Compound 8e, N-cyclopentyl-1-octyl-5-phenyl-1H-imidazol-2-amine], the “inhibition of the mixed biofilm P. aeruginosa/E. coli (in words)” value in [1] is “at higher concentrations”. In data set [2] (setting [18]), the activity at 25 µM turned out to be 10%. The results for the activity at 100 µM in data set [2] (setting [18]) and in data set [2] (setting [19]) were 2.5% and 0%, respectively. Also, the “proliferation (in words)” value in [3] and in data set [4] was “slightly reduced” in each case. Besides, the “anti-biofilm activity (in words)” value in data set [5] (biofilm at 37° C.) is recorded as “showed activity”; in data set [5] (biofilm cells at 25° C.) it was “potent activity”.

As to `CCCCCCCCn1c(-c2ccc(Cl)cc2)cnc1NCC(C)C` [Compound 8b, 5-(4-chlorophenyl)-N-isobutyl-1-octyl-1H-imidazol-2-amine], the activity at 25 µM was determined as 2% in [2] (setting [18]) and 6.1% in data set [2] (setting [20]). Moreover, the activity at 100 µM in [2] (setting [19]) was determined as 0.7%. Also, the “calcium deposition (in words)” value in [6] and in [7] was “induced the calcium deposition” each time. Further, the “anti-biofilm activity (in words)” value in data set [5] (biofilm cells at 25° C.) is given as “potent activity”.

Consider `CCCCCCCCn1c(-c2ccccc2)cnc1NCC(C)C` [Compound 8a, N-isobutyl-1-octyl-5-phenyl-1H-imidazol-2-amine], for which the “inhibition of the mixed biofilm P. aeruginosa/E. coli (in words)” value in data set [1] was “strongly inhibited”. Besides, the activity at 100 µM in data set [2] (setting [18]) and in data set [2] (setting [19]) was 1% each time. The “proliferation (in words)” value in data set [3] and in data set [4] was “slightly reduced” in each case. For the same compound, the “anti-biofilm activity (in words)” value is given as “showed activity” in data set [5] (biofilm at 37° C.) and “potent activity” in data set [5] (biofilm cells at 25° C.).

`CCCCCCCCn1c(-c2ccc(Cl)cc2)cnc1NC1CCCC1` [Compound 8f, 5-(4-chlorophenyl)-N-cyclopentyl-1-octyl-1H-imidazol-2-amine]: the “inhibition of the mixed biofilm P. aeruginosa/E. coli (in words)” value in data set [1] is reported as “at higher concentrations”. In addition, the values for the activity at 25 µM in data set [2] (setting [18]) and in [2] (setting [20]) were 2.9% and 2.5%, respectively. Moreover, the activity at 100 µM was found to be 7.2% in data set [2] (setting [18]) and 0.3% in data set [2] (setting [19]). For the same compound, the “proliferation (in words)” value in [4] was “slightly reduced”. The “anti-biofilm activity (in words)” value in data set [5] (biofilm cells at 25° C.) was “potent activity”.

Consider `Brc1ccc(-c2cnc(NCCn3cc(C4CC4)nn3)[nH]2)cc1` [Compound 6], for which the “anti-biofilm activity (in words)” value is reported as “No activity” in data set [8] (monospecies biofilm, 37° C.); “No activity” in data set [10] (monospecies biofilm, novel compounds: highest concentration tested 100 μM); “No activity” in data set [14] (monospecies biofilm); “No activity” in data set [15] (monospecies biofilm); “No activity” in data set [17] (monospecies biofilm). Also, the IC50 in data set [8] (planktonic growth, 25° C.) is greater than 400 µM; in [8] (planktonic growth, 37° C.), greater than 400 µM; in [8] (setting [21]) it was 71.6 µM; in [8] (setting [22]), greater than 400 µM; in data set [1] (setting [23]) it was 34.6 µM; in [1] (setting [24]) it was greater than 400 µM. Besides, the IC50 was 63.3 µM in data set [9] (setting [25]); greater than 400 µM in [9] (setting [26]); greater than 400 µM in [10]; 33.9 µM in [11] (setting [23]); roughly 392 µM in data set [11] (setting [24]); 2.4 µM in [12] (planktonic growth, 25° C.). Besides, the IC50 in data set [12] (setting [27]) was 2 µM; in [13] (planktonic growth), greater than 400 µM; in data set [13] (setting [27]) it was 75.2 µM; in data set [14] (planktonic growth), greater than 400 µM; in data set [14] (setting [27]), greater than 400 µM; in [15] (planktonic growth), greater than 400 µM. For the same compound, the IC50 in [15] (setting [27]) was greater than 400 µM; in data set [16] (planktonic growth, 37° C.), 19.5 µM; in data set [16] (setting [27]), 18.1 µM; in data set [17] (planktonic growth), greater than 400 µM; in [17] (setting [27]), greater than 400 µM; in data set [5] (planktonic growth), 183 µM. In addition, in data set [5] (setting [27]), the IC50 was roughly 192 µM.

For `CCCCNc1ncc(-c2ccc(Br)cc2)[nH]1` [Compound 4], the IC50 was greater than 400 µM in [8] (planktonic growth, 37° C.); 9.8 µM in data set [8] (setting [21]); greater than 400 µM in data set [8] (setting [22]); 17.8 µM in data set [1] (setting [23]); greater than 400 µM in data set [1] (setting [24]); 4.4 µM in [9] (setting [25]). Moreover, the IC50 is 118 µM in data set [9] (setting [26]); 66.7 µM in data set [10]; 6.8 µM in data set [11] (setting [23]); roughly 118 µM in [11] (setting [24]); 7.1 µM in data set [12] (setting [21]); 60.1 µM in data set [13] (planktonic growth). Also, the IC50 in [13] (setting [27]) was roughly 12.3 µM; in [14] (planktonic growth), 54.4 µM; in data set [14] (setting [27]), greater than 400 µM; in data set [15] (planktonic growth) it was 89.4 µM; in data set [15] (setting [27]), 66.5 µM; in [16] (planktonic growth, 37° C.) it was 8.2 µM. The IC50 in [16] (setting [22]) is 3.7 µM; in data set [17] (planktonic growth) it was greater than 400 µM; in data set [17] (setting [27]), 189 µM; in data set [5] (planktonic growth), 23 µM; in [5] (setting [27]), 84.7 µM.
